Data reported in patent publication US20250122191A1, “COMPOUNDS AS BCL-2 INHIBITORS” (Fochon Biosciences, Ltd, priority 2021, published 2025).

Key:
Type in all cases: cell-based
RS4;11-BCL-2 F104L cells = assay: Cell proliferation assay (MTS), RS4;11-BCL-2 F104L engineered cells; conditions: Homo sapiens, 120 h, read-out: RS4, 11 BCL2-F104L IC50
Excerpt: MTS testing kit was purchased from Promega (Madison, WI, USA). The RPMI-1640, Fetal bovine serum and Penicillin-Streptomycin were purchased from BI (Biological Industries, Beit Haemek, Israel). Puromycin was purchased from Beyotime (shanghai, China). Dimethyl sulfoxide (DMSO) was purchased from Sigma (St. Louis., MO, USA). RS4;11-BCL-2 G101V (Cobioer Lot. #: CBD2021063013P4), RS4;11-BCL-2 D103E (Cobioer Lot. #: CBD2021063013P4), RS4;11-BCL-2 D103Y (Cobioer Lot. #: CBD2022012101P4) and RS4;11-BCL-2 F104L (Cobioer Lot. #: CBD2021063014P4) cells were cultured in RPMI1640 supplemented with 1 ug/mL puromycin, 100 U/mL Penicillin-Streptomycin and 10% FBS.
To investigate whether a compound is able to inhibit the activity of BCL-2 mutation in cells, a mechanism-based assay using engineered cell lines stably overexpressing BCL-2 mutation (RS4;11-BCL-2 G101V, RS4;11-BCL-2 D103E, RS4;11-BCL-2 D103Y, and RS4;11-BCL-2 F104L) was developed. In this assay, the inhibition of BCL-2 mutation was reflected by the inhibition of cell proliferation of engineered RS4;11 cells. Cells were plated into 96-well plates at optimized cell density (RS4;11-BCL-2 G101V: 5000 cells/well; RS4;11-BCL-2 D103E: 7500 cells/well; RS4;11-BCL-2 D103Y: 7500 cells/well; RS4;11-BCL-2 F104L: 5000 cells/well). Plates were incubated at 37° C., with 5% CO2 for 4 h (RS4;11-BCL-2 G101V, RS4;11-BCL-2 F104L) and 24 h (RS4;11-BCL-2 D103E, RS4;11-BCL-2 D103Y), respectively. Compounds were serially diluted and added to the plates with the final concentrations of 10000, 3333.3, 1111.1, 370.4, 123.5, 41.2, 13.7, 4.6 and 1.5 nM. Plates were incubated at 37° C., with 5% CO2 for 120 h (RS4; 11-BCL-2 G101V, RS4; 11-BCL-2 F104L) and 72 h (RS4;11-BCL-2 D103E, RS4;11-BCL-2 D103Y), respectively. 20 μl MTS was added into each well and the plates were incubated at 37° C., with 5% CO2 exactly for 2 h. The absorbance was measured by a microplate reader at 490 nm. IC50 values were calculated using GraphPad Prism 8.0 software.

RS4;11-BCL-2 G101V cells = assay: Cell proliferation assay (MTS), RS4;11-BCL-2 G101V engineered cells; conditions: Homo sapiens, 120 h, read-out: RS4, 11 BCL2-G101V IC50
Method in brief: (§1)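 Cells were plated, allowed to settle 4 h (G101V, F104L) or 24 h (D103E, D103Y), and treated with serially diluted compound (10000 down to 1.5 nM). After 120 h or 72 h respectively at 37 °C, MTS was added for 2 h and absorbance at 490 nm gave IC50 values.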

Toledo cells = assay: Cell proliferation assay (MTS), Toledo cells; conditions: Homo sapiens, 72 h
Method in brief: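 Toledo cells (RPMI-1640, 10% FBS) seeded at 30000 cells/well, rested 4 h, then exposed 72 h at 37 °C, 5% CO2 to compound at nine final concentrations, 1.5–10000 nM. Viability by MTS (2 h), absorbance at 490 nm. IC50 from the concentration-response.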

RS4;11-BCL-2 D103E cells = assay: Cell proliferation assay (MTS), RS4;11-BCL-2 D103E engineered cells; conditions: Homo sapiens, 72 h, read-out: RS4, 11 BCL2-D103E IC50
Method in brief: as §1

| SMILES | IC50 (RS4;11-BCL-2 F104L cells) [nM] | IC50 (RS4;11-BCL-2 G101V cells) [nM] | IC50 (Toledo cells) [nM] | IC50 (RS4;11-BCL-2 D103E cells) [nM] |
| --- | --- | --- | --- | --- |
| COc1cc(CN2CCC(N3CC4(CCN(c5ccc(C(=O)NS(=O)(=O)c6cnc(NC[C@H]7CC[C@](C)(O)CC7)c([N+](=O)[O-])c6)c(Oc6cc7c(F)c[nH]c7nc6OC)c5)CC4)C3)[C@H](c3ccccc3C(C)C)C2)ccn1 (single isomer, unassigned) [Example 363, 2-((3-fluoro-6-methoxy-1H-pyrrolo[2,3-b]pyridin-5-yl)oxy)-N-((6-((((1r,4r)-4-hydroxy-4-methylcyclohexyl)methyl)amino)-5-nitropyridin-3-yl)sulfonyl)-4-(2-(3-(2-isopropylphenyl)-1-((2-methoxypyridin-4-yl)methyl)piperidin-4-yl)-2,7-diazaspiro[3.5]nonan-7-yl)benzamide] | 1 | – | – | – |
| COc1ccc(CN2CCN(C3CC4(CCN(c5ccc(C(=O)NS(=O)(=O)c6cnc(NC[C@H]7CC[C@](C)(O)CC7)c([N+](=O)[O-])c6)c(Oc6cnc7[nH]ccc7c6)c5)CC4)C3)[C@H](c3ccccc3C(C)C)C2)c2cc(C)oc12 [Example 66, 2-((1H-pyrrolo[2,3-b]pyridin-5-yl)oxy)-N-((6-((((1r,4r)-4-hydroxy-4-methylcyclohexyl)methyl)amino)-5-nitropyridin-3-yl)sulfonyl)-4-(2-((R)-2-(2-isopropylphenyl)-4-((7-methoxy-2-methylbenzofuran-4-yl)methyl)piperazin-1-yl)-7-azaspiro[3.5]nonan-7-yl)benzamide] | 1 | 1 | – | – |
| CCOc1nc2[nH]cc(F)c2cc1Oc1cc(N2CCC3(CC2)CC(N2CCC[C@H]2c2ccccc2C(C)C)C3)ccc1C(=O)NS(=O)(=O)c1cnc(NC[C@H]2CC[C@](C)(O)CC2)c([N+](=O)[O-])c1 [Example 90, 2-((6-ethoxy-3-fluoro-1H-pyrrolo[2,3-b]pyridin-5-yl)oxy)-N-((6-((((1r,4r)-4-hydroxy-4-methylcyclohexyl)methyl)amino)-5-nitropyridin-3-yl)sulfonyl)-4-(2-((S)-2-(2-isopropylphenyl)pyrrolidin-1-yl)-7-azaspiro[3.5]nonan-7-yl)benzamide] | 1 | – | – | – |
| COc1cc(CN2CCN(C3CC4(CCN(c5ccc(C(=O)NS(=O)(=O)c6cnc(NC[C@H]7CC[C@](C)(O)CC7)c([N+](=O)[O-])c6)c(Oc6cc7c(F)c[nH]c7nc6OC)c5)CC4)C3)[C@H](c3ccccc3C(C)C)C2)cc(SC)n1 [Example 63, 2-((3-fluoro-6-methoxy-1H-pyrrolo[2,3-b]pyridin-5-yl)oxy)-N-((6-((((1r,4r)-4-hydroxy-4-methylcyclohexyl)methyl)amino)-5-nitropyridin-3-yl)sulfonyl)-4-(2-((R)-2-(2-isopropylphenyl)-4-((2-methoxy-6-(methylthio)pyridin-4-yl)methyl)piperazin-1-yl)-7-azaspiro[3.5]nonan-7-yl)benzamide] | 1 | 1 | – | – |
| CCOc1nc2[nH]cc(F)c2cc1Oc1cc(N2CCC3(CC2)CC(N2CCOC[C@H]2c2ccccc2C(C)C)C3)ccc1C(=O)NS(=O)(=O)c1cnc(NC[C@H]2CC[C@](C)(O)CC2)c([N+](=O)[O-])c1 [Example 88, 2-((6-ethoxy-3-fluoro-1H-pyrrolo[2,3-b]pyridin-5-yl)oxy)-N-((6-((((1r,4r)-4-hydroxy-4-methylcyclohexyl)methyl)amino)-5-nitropyridin-3-yl)sulfonyl)-4-(2-((R)-3-(2-isopropylphenyl)morpholino)-7-azaspiro[3.5]nonan-7-yl)benzamide] | 1 | – | – | – |
| COc1ccc(CN2CCC(N3CC4(CCN(c5ccc(C(=O)NS(=O)(=O)c6cnc(NC[C@H]7CC[C@](C)(O)CC7)c([N+](=O)[O-])c6)c(Oc6cc7c(F)c[nH]c7nc6OC)c5)CC4)C3)C(c3ccccc3C(C)C)C2)cc1 (stereo partly drawn) [Example 19, 2-((3-fluoro-6-methoxy-1H-pyrrolo[2,3-b]pyridin-5-yl)oxy)-N-((6-((((1r,4r)-4-hydroxy-4-methylcyclohexyl)methyl)amino)-5-nitropyridin-3-yl)sulfonyl)-4-(2-(3-(2-isopropylphenyl)-1-(4-methoxybenzyl)piperidin-4-yl)-2,7-diazaspiro[3.5]nonan-7-yl)benzamide] | 1 | – | – | – |
| CCOc1cc(CN2CCN(C3CC4(CCN(c5ccc(C(=O)NS(=O)(=O)c6cnc(NC[C@H]7CC[C@](C)(O)CC7)c([N+](=O)[O-])c6)c(Oc6cc7c(F)c[nH]c7nc6OC)c5)CC4)C3)[C@H](c3ccccc3C(C)C)C2)ccn1 [Example 65, 4-(2-((R)-4-((2-ethoxypyridin-4-yl)methyl)-2-(2-isopropylphenyl)piperazin-1-yl)-7-azaspiro[3.5]nonan-7-yl)-2-((3-fluoro-6-methoxy-1H-pyrrolo[2,3-b]pyridin-5-yl)oxy)-N-((6-((((1r,4r)-4-hydroxy-4-methylcyclohexyl)methyl)amino)-5-nitropyridin-3-yl)sulfonyl)benzamide] | 1 | 1 | – | – |
| CCOc1nc2[nH]cc(F)c2cc1Oc1cc(N2CCC3(CC2)CN(C2CCN(Cc4ccc(OC)cc4)CC2c2ccccc2C(C)C)C3)ccc1C(=O)NS(=O)(=O)c1cnc(NC[C@H]2CC[C@](C)(O)CC2)c([N+](=O)[O-])c1 (stereo partly drawn) [Example 20, 2-((6-ethoxy-3-fluoro-1H-pyrrolo[2,3-b]pyridin-5-yl)oxy)-N-((6-((((1r,4r)-4-hydroxy-4-methylcyclohexyl)methyl)amino)-5-nitropyridin-3-yl)sulfonyl)-4-(2-(3-(2-isopropylphenyl)-1-(4-methoxybenzyl)piperidin-4-yl)-2,7-diazaspiro[3.5]nonan-7-yl)benzamide] | 3 | – | – | – |
| COc1ccc(CN2CCN(C3CC4(CCN(c5ccc(C(=O)NS(=O)(=O)c6cnc(NC[C@H]7CC[C@](C)(O)CC7)c([N+](=O)[O-])c6)c(Oc6cnc7[nH]ccc7c6)c5)CC4)C3)[C@H](c3ccccc3C(C)C)C2)cc1 [Example 61, 2-((1H-pyrrolo[2,3-b]pyridin-5-yl)oxy)-N-((6-((((1r,4r)-4-hydroxy-4-methylcyclohexyl)methyl)amino)-5-nitropyridin-3-yl)sulfonyl)-4-(2-((R)-2-(2-isopropylphenyl)-4-(4-methoxybenzyl)piperazin-1-yl)-7-azaspiro[3.5]nonan-7-yl)benzamide] | 1 | – | – | – |
| COCCN1CCN(C2CC3(CCN(c4ccc(C(=O)NS(=O)(=O)c5cnc(NC[C@H]6CC[C@](C)(O)CC6)c([N+](=O)[O-])c5)c(Oc5cnc6[nH]cc(F)c6c5)c4)CC3)C2)[C@H](c2ccccc2C(C)C)C1 [Example 203, 2-((3-fluoro-1H-pyrrolo[2,3-b]pyridin-5-yl)oxy)-N-((6-((((1r,4r)-4-hydroxy-4-methylcyclohexyl)methyl)amino)-5-nitropyridin-3-yl)sulfonyl)-4-(2-((R)-2-(2-isopropylphenyl)-4-(2-methoxyethyl)piperazin-1-yl)-7-azaspiro[3.5]nonan-7-yl)benzamide] | – | 1 | 1 | 1 |
| CCOc1nc2[nH]cc(F)c2cc1Oc1cc(N2CCC3(CC2)CC(N2CCN(Cc4ccc(OC)c(OC)c4)C[C@H]2c2ccccc2C(C)C)C3)ccc1C(=O)NS(=O)(=O)c1cnc(NC[C@H]2CC[C@](C)(O)CC2)c([N+](=O)[O-])c1 [Example 8, 4-(2-((R)-4-(3,4-dimethoxybenzyl)-2-(2-isopropylphenyl)piperazin-1-yl)-7-azaspiro[3.5]nonan-7-yl)-2-((6-ethoxy-3-fluoro-1H-pyrrolo[2,3-b]pyridin-5-yl)oxy)-N-((6-((((1r,4r)-4-hydroxy-4-methylcyclohexyl)methyl)amino)-5-nitropyridin-3-yl)sulfonyl)benzamide] | – | 1 | 1 | 3 |
